Read-outs that look alike come from different tables or passages of the source.
Experiments:
Type in all cases: physicochemical
[1] = LNP Zeta potential measured using a Zetasizer (Malvern); conditions: for Zeta potential: LNP 50:10:38.5:1.5 mol %, hEPO mRNA, N:P 6; for Zeta potential (mV): Table 11, LNP with hEPO mRNA, Lipid:DSPC:Cholesterol:DMG-PEG2k 50:10:38.5:1.5 mol % (ALC-0315: 46.3:9.4:42.7:1.6), N:P ratio 6, HEPES/sodium chloride/sucrose buffer, stored at −80C
[2] = Encapsulation efficiency (EE %) by fluorescence based Ribogreen assay
[3] = LNP size and polydispersity index (PDI) by dynamic light scattering (DLS); conditions: for Size: LNP Lipid:DSPC:Cholesterol:DMG-PEG2k 50:10:38.5:1.5 mol %
[4] = Table 9, LNP 50:10:38.5:1.5 mol %, hEPO mRNA, N:P 6
[5] = Table 8, LNP 50:10:38.5:1.5 mol %, hEPO mRNA, N:P 6
[6] = Table 11, LNP with hEPO mRNA, Lipid:DSPC:Cholesterol:DMG-PEG2k 50:10:38.5:1.5 mol % (ALC-0315: 46.3:9.4:42.7:1.6), N:P ratio 6, HEPES/sodium chloride/sucrose buffer, stored at −80C

Structure (SMILES): CCCCCCCCC(CCCCCC)C(=O)OCCN(CCOC(=O)C(CCCCCC)CCCCCCCC)C(=O)CN1CCCC1.Cl (stereo not drawn) [Compound 960c]
- Zeta potential ([1]; Table 9): −20.89 mV
- Encapsulation Efficiency % [2, 4]: 99.7%
- PDI [3, 4]: 0.079
- Size ([3]; Table 9, hEPO mRNA, N:P 6): 88 nm

Structure (SMILES): CCCCCCCCC(CCCCCC)C(=O)OCCN(CCOC(=O)C(CCCCCC)CCCCCCCC)C(=O)CN1CCCCC1.Cl (stereo not drawn) [Compound 960d]
- Zeta potential ([1]; Table 9): −32.3 mV
- Encapsulation Efficiency % [2, 4]: 99.5%
- PDI [3, 4]: 0.133
- Size ([3]; Table 9, hEPO mRNA, N:P 6): 74.5 nm

Structure (SMILES): CCCCCCCCC(CCCCCC)C(=O)OCCN(CCOC(=O)C(CCCCCC)CCCCCCCC)C(=O)CN1CCOCC1.Cl (stereo not drawn) [Compound 960e]
- Zeta potential ([1]; Table 9): −45.58 mV
- Encapsulation Efficiency % [2, 4]: 99.4%
- PDI [3, 4]: 0.384
- Size ([3]; Table 9, hEPO mRNA, N:P 6): 73.3 nm

Structure (SMILES): CCCCCCCCC(CCCCCC)C(=O)OCCN(CCOC(=O)C(CCCCCC)CCCCCCCC)C(=O)CN(C)CCO.Cl (stereo not drawn) [Compound 960g]
- Zeta potential ([1]; Table 9): −12.1 mV
- Encapsulation Efficiency % [2, 4]: 99%
- PDI [3, 4]: 0.254
- Size ([3]; Table 9, hEPO mRNA, N:P 6): 72.6 nm

Structure (SMILES): CCCCCCCC(CCCCCCC)C(=O)OCCN(CCOC(=O)C(CCCCCCC)CCCCCCC)C(=O)CN(C)C.Cl [Compound 962]
- Zeta potential ([1]; Table 9): −30.33 mV
- Encapsulation Efficiency % [2, 4]: 99.6%
- PDI [3, 4]: 0.132
- Size ([3]; Table 9, hEPO mRNA, N:P 6): 74.9 nm

Structure (SMILES): CCCCCCCCCC(CCCCCCCCC)C(=O)OCCN(CCOC(=O)C(CCCCCCCCC)CCCCCCCCC)C(=O)CN(C)C.Cl [Compound 963]
- Zeta potential ([1]; Table 9): −41.21 mV
- Encapsulation Efficiency % [2, 4]: 99.2%
- PDI [3, 4]: 0.447
- Size ([3]; Table 9, hEPO mRNA, N:P 6): 76.1 nm

Structure (SMILES): CCCCCCCCC(CCCCCC)C(=O)OCCN(CCOC(=O)C(CCCCCC)CCCCCCCC)C(=O)CNC.Cl (stereo not drawn) [Compound 964]
- Zeta potential ([1]; Table 9): −26.13 mV
- Encapsulation Efficiency % [2, 4]: 99.3%
- PDI [3, 4]: 0.317
- Size ([3]; Table 9, hEPO mRNA, N:P 6): 73.9 nm

Structure (SMILES): CCCCCCCCC(CCCCCC)C(=O)OCCN(CCOC(=O)C(CCCCCC)CCCCCCCC)C(=O)CNCC.Cl (stereo not drawn) [Compound 965]
- Zeta potential ([1]; Table 9): −14.27 mV
- Encapsulation Efficiency % [2, 4]: 98.6%
- PDI [3, 4]: 0.216
- Size ([3]; Table 9, hEPO mRNA, N:P 6): 76.3 nm

Structure (SMILES): CCCCCCCCC(CCCCCC)C(=O)OCCN(CCOC(=O)C(CCCCCC)CCCCCCCC)C(=O)CN(C)CC.Cl (stereo not drawn) [Compound 966]
- Zeta potential ([1]; Table 9): −36.65 mV
- Encapsulation Efficiency % [2, 4]: 97.8%
- PDI [3, 4]: 0.076
- Size ([3]; Table 9, hEPO mRNA, N:P 6): 89.5 nm

Structure (SMILES): CCCCCCCCC(CCCCCC)C(=O)OCCN(CCOC(=O)C(CCCCCC)CCCCCCCC)C(=O)CN(CC)CC.Cl (stereo not drawn) [Compound 967]
- Zeta potential ([1]; Table 9): −21.99 mV
- Encapsulation Efficiency % [2, 4]: 97.9%
- PDI [3, 4]: 0.101
- Size ([3]; Table 9, hEPO mRNA, N:P 6): 82.1 nm

Structure (SMILES): CCCCCCCCC(CCCCCC)C(=O)OCCN(CCOC(=O)C(CCCCCC)CCCCCCCC)C(=O)CNCCC.Cl (stereo not drawn) [Compound 968]
- Zeta potential ([1]; Table 9): −13.15 mV
- Encapsulation Efficiency % [2, 4]: 98.2%
- PDI [3, 4]: 0.368
- Size ([3]; Table 9, hEPO mRNA, N:P 6): 76.7 nm

Structure (SMILES): CCCCCCCCC(CCCCCC)C(=O)OCCN(CCOC(=O)C(CCCCCC)CCCCCCCC)C(=O)CN(C)CCC.Cl (stereo not drawn) [Compound 969]
- Zeta potential ([1]; Table 9): −28.83 mV
- Encapsulation Efficiency % [2, 4]: 99.4%
- PDI [3, 4]: 0.15
- Size ([3]; Table 9, hEPO mRNA, N:P 6): 70 nm

Structure (SMILES): CCCCCCCCC(CCCCCC)C(=O)OCCN(CCOC(=O)C(CCCCCC)CCCCCCCC)C(=O)CCCN(CC)CCC.Cl (stereo not drawn) [Compound 980]
- Zeta potential ([1]; Table 8): −18.1 mV
- Encapsulation Efficiency % [2, 5]: 94.9%
- PDI [3, 5]: 0.159
- Size ([3]; Table 8, hEPO mRNA, N:P 6): 90.1 nm

Structure (SMILES): CCCCCCCCC(CCCCCC)C(=O)OCCN(CCOC(=O)C(CCCCCC)CCCCCCCC)C(=O)CCCN1CCCC1.Cl (stereo not drawn) [Compound 982]
- Zeta potential ([1]; Table 8): −14.2 mV
- Encapsulation Efficiency % [2, 5]: 99.9%
- PDI [3, 5]: 0.081
- Size ([3]; Table 8, hEPO mRNA, N:P 6): 120.5 nm

Structure (SMILES): CCCCCCCCC(CCCCCC)C(=O)OCCN(CCOC(=O)C(CCCCCC)CCCCCCCC)C(=O)CCCN1CCCCC1.Cl (stereo not drawn) [Compound 983]
- Zeta potential ([1]; Table 8): −15.9 mV
- Encapsulation Efficiency % [2, 5]: 97.1%
- PDI [3, 5]: 0.114
- Size ([3]; Table 8, hEPO mRNA, N:P 6): 90.4 nm

Structure (SMILES): CCCCCCCCC(CCCCCC)C(=O)OCCN(CCOC(=O)C(CCCCCC)CCCCCCCC)C(=O)CCCN(C)CCO.Cl (stereo not drawn) [Compound 986]
- Zeta potential ([1]; Table 8): −8.2 mV
- Encapsulation Efficiency % [2, 5]: 99.9%
- PDI [3, 5]: 0.088
- Size ([3]; Table 8, hEPO mRNA, N:P 6): 112.9 nm

Structure (SMILES): CCCCCCCCC(CCCCCC)C(=O)OCCN(CCOC(=O)C(CCCCCC)CCCCCCCC)C(=O)C(C)CCN(C)C (stereo not drawn) [Compound 987a]
- Zeta potential (mV) [1]: −3.5 mV
- Encapsulation Efficiency % [2]: 95.7%
- PDI [3]: 0.104
- Size (nm) [3]: 73.2 nm

Structure (SMILES): CCCCCCCC(CCCCCCC)C(=O)OCCN(CCOC(=O)C(CCCCCCC)CCCCCCC)C(=O)C(C)CCN(C)C.Cl (stereo not drawn) [Compound 987b]
- Zeta potential (mV) [1]: −2.1 mV
- Encapsulation Efficiency % [2, 6]: 93.6%
- PDI [3, 6]: 0.102
- Size (nm) [3, 6]: 74.1 nm

Structure (SMILES): CCCCCCCCCC(CCCCCCCCC)C(=O)OCCN(CCOC(=O)C(CCCCCCCCC)CCCCCCCCC)C(=O)C(C)CCN(C)C.Cl (stereo not drawn) [Compound 987c]
- Zeta potential (mV) [1]: −6.6 mV
- Encapsulation Efficiency % [2, 6]: 98.0%
- PDI [3, 6]: 0.066
- Size (nm) [3, 6]: 72.0 nm

Structure (SMILES): CCCCCCCCC(CCCCCC)C(=O)OCCN(CCOC(=O)C(CCCCCC)CCCCCCCC)C(=O)C(C)CCNC.Cl (stereo not drawn) [Compound 987d]
- Zeta potential (mV) [1]: −1.5 mV
- Encapsulation Efficiency % [2, 6]: 99.2%
- PDI [3, 6]: 0.092
- Size (nm) [3, 6]: 62.9 nm

Structure (SMILES): CCCCCCCCC(CCCCCC)C(=O)OCCN(CCOC(=O)C(CCCCCC)CCCCCCCC)C(=O)C(C)CCNCC.Cl (stereo not drawn) [Compound 987e]
- Zeta potential (mV) [1]: 0.8 mV
- Encapsulation Efficiency % [2, 6]: 99.4%
- PDI [3, 6]: 0.110
- Size (nm) [3, 6]: 70.5 nm

Structure (SMILES): CCCCCCCCC(CCCCCC)C(=O)OCCN(CCOC(=O)C(CCCCCC)CCCCCCCC)C(=O)C(C)CCN(C)CC.Cl (stereo not drawn) [Compound 987f]
- Zeta potential (mV) [1]: −2.8 mV
- Encapsulation Efficiency % [2, 6]: 92.3%
- PDI [3, 6]: 0.072
- Size (nm) [3, 6]: 79.4 nm

Structure (SMILES): CCCCCCCCC(CCCCCC)C(=O)OCCN(CCOC(=O)C(CCCCCC)CCCCCCCC)C(=O)C(C)CCN(CC)CC.Cl (stereo not drawn) [Compound 987g]
- Zeta potential (mV) [1]: −3.5 mV
- Encapsulation Efficiency % [2, 6]: 95.4%
- PDI [3, 6]: 0.097
- Size (nm) [3, 6]: 70.5 nm

Structure (SMILES): CCCCCCCCC(CCCCCC)C(=O)OCCN(CCOC(=O)C(CCCCCC)CCCCCCCC)C(=O)C(C)CCNCCC.Cl (stereo not drawn) [Compound 987h]
- Zeta potential (mV) [1]: 0.0 mV
- Encapsulation Efficiency % [2, 6]: 99.4%
- PDI [3, 6]: 0.099
- Size (nm) [3, 6]: 69.1 nm

Structure (SMILES): CCCCCCCCC(CCCCCC)C(=O)OCCN(CCOC(=O)C(CCCCCC)CCCCCCCC)C(=O)C(C)CCN(C)CCC.Cl (stereo not drawn) [Compound 987i]
- Zeta potential (mV) [1]: −4.1 mV
- Encapsulation Efficiency % [2, 6]: 94.9%
- PDI [3, 6]: 0.059
- Size (nm) [3, 6]: 71.7 nm

Structure (SMILES): CCCCCCCCC(CCCCCC)C(=O)OCCN(CCOC(=O)C(CCCCCC)CCCCCCCC)C(=O)C(C)CCN(CC)CCC.Cl (stereo not drawn) [Compound 987j]
- Zeta potential (mV) [1]: −4.4 mV
- Encapsulation Efficiency % [2, 6]: 95.7%
- PDI [3, 6]: 0.101
- Size (nm) [3, 6]: 76.6 nm

Structure (SMILES): CCCCCCCCC(CCCCCC)C(=O)OCCN(CCOC(=O)C(CCCCCC)CCCCCCCC)C(=O)C(C)CCN(CCC)CCC.Cl (stereo not drawn) [Compound 987k]
- Zeta potential (mV) [1]: −3.4 mV
- Encapsulation Efficiency % [2, 6]: 87.2%
- PDI [3, 6]: 0.045
- Size (nm) [3, 6]: 76.7 nm

Structure (SMILES): CCCCCCCCC(CCCCCC)C(=O)OCCN(CCOC(=O)C(CCCCCC)CCCCCCCC)C(=O)C(C)CCN1CCCC1.Cl (stereo not drawn) [Compound 987l]
- Zeta potential (mV) [1]: −2.9 mV
- Encapsulation Efficiency % [2, 6]: 95.9%
- PDI [3, 6]: 0.051
- Size (nm) [3, 6]: 76.4 nm

Structure (SMILES): CCCCCCCCC(CCCCCC)C(=O)OCCN(CCOC(=O)C(CCCCCC)CCCCCCCC)C(=O)C(C)CCN1CCCCC1.Cl (stereo not drawn) [Compound 987m]
- Zeta potential (mV) [1]: −5.1 mV
- Encapsulation Efficiency % [2, 6]: 94.9%
- PDI [3, 6]: 0.076
- Size (nm) [3, 6]: 73.7 nm

Structure (SMILES): CCCCCCCCC(CCCCCC)C(=O)OCCN(CCOC(=O)C(CCCCCC)CCCCCCCC)C(=O)C(C)CCN1CCOCC1.Cl (stereo not drawn) [Compound 987n]
- Zeta potential (mV) [1]: −3.8 mV
- Encapsulation Efficiency % [2, 6]: 77.8%
- PDI [3, 6]: 0.107
- Size (nm) [3, 6]: 65.7 nm
